Test results: patent US12344610B2, “APOL1 inhibitors and methods of use” (Maze Therapeutics, Inc., priority 2022, dated 2025)

Experiments:
Assay type in all cases: cell-based
[1] = test system: Trypanosoma brucei Lister 427 VSG221 with APOL1 G2 recombinant protein; experiment: APOL1 G2 trypanosome cell rescue assay (Example B5); conditions: Trypanosoma brucei, 20 h, read-out: APOL1 G2 Trypanosome Rescue EC50, Trypanosoma brucei Lister 427 VSG221 with APOL1 G2 recombinant protein, 20 hours, CellTiter-Glo; geometric mean of at least 2 assay runs; † = single assay run
Procedure, shortened: (§1)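 Compounds in duplicate 2-fold, 11-point series with 0.4% DMSO final. Next, tag-free mature APOL1 variant protein went in from a 2 μg/mL solution, then trypanosomes to 250 per well. Plates incubated 20 h humidified at 37° C, equilibrated to room temperature, and CellTiter-Glo added for luminescence.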

[2] = test system: HEK293 cells overexpressing APOL1 G2; experiment: APOL1 G2 HEK293 cell rescue assay (reversal of cell death caused by overexpression of APOL1); conditions: Homo sapiens, HEK293, HEK293 overexpressing APOL1 G2; geometric mean of at least 2 assay runs; † = single assay run
Procedure, shortened: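 EC50 is the half-maximal effective concentration for reversing cell death driven by APOL1 G2 overexpression in HEK293 cells. Reported as geometric mean of at least 2 runs on separate days, each run averaging duplicate wells per plate; some values from a single run.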

[3] = test system: Trypanosoma brucei Lister 427 VSG221 with APOL1 G1 recombinant protein; experiment: APOL1 G1 trypanosome cell rescue assay (Example B5); conditions: Trypanosoma brucei, 20 h, read-out: APOL1 G1 Trypanosome Rescue EC50, Trypanosoma brucei Lister 427 VSG221 with APOL1 G1 recombinant protein, 20 hours, CellTiter-Glo; geometric mean of at least 2 assay runs; † = single assay run
Procedure, shortened: as §1

[4] = test system: Trypanosoma brucei Lister 427 VSG221 with APOL1 G0 recombinant protein; experiment: APOL1 G0 trypanosome cell rescue assay (Example B5); conditions: Trypanosoma brucei, 20 h, read-out: APOL1 G0 Trypanosome Rescue EC50, Trypanosoma brucei Lister 427 VSG221 with APOL1 G0 recombinant protein, 20 hours, CellTiter-Glo; geometric mean of at least 2 assay runs; † = single assay run
Procedure, shortened: as §1

Structure (SMILES)	EC50 [1]	EC50 [2]	EC50 [3]	EC50 [4]
CS(C)(=O)=Nc1ccc(OCCN2CCC3(CC2)C(=O)Nc2ccc(C#N)cc23)cc1 [Compound 77, 1′-[2-(4-{[dimethyl(oxo)-λ^6-sulfanylidene]amino}phenoxy)ethyl]-2-oxo-1,2-dihydrospiro[indole-3,4′-piperidine]-5-carbonitrile]	1.45 µM	2.25 µM	> 4 µM	> 4 µM
C[C@]1(O)C[C@@H](N2C(=O)Cc3cc(OCCN4CCC5(CC4)C(=O)Nc4ccc(Cl)cc45)cnc32)C1 [Compound 345, 5-chloro-1′-[2-({2-oxo-1-[(cis)-3-hydroxy-3-methylcyclobutyl]-1H,2H,3H-pyrrolo[2,3-b]pyridin-5-yl}oxy)ethyl]-1,2-dihydrospiro[indole-3,4′-piperidin]-2-one]	0.0802 µM	0.0364 µM	0.242 µM	0.161 µM
CC(=O)N1CCCc2cc(OCCN3CCC4(CC3)C(=O)Nc3ccc(Cl)cc34)ccc21 [Compound 56, 1′-{2-[(1-acetyl-1,2,3,4-tetrahydroquinolin-6-yl)oxy]ethyl}-5-chloro-1,2-dihydrospiro[indole-3,4′-piperidin]-2-one]	0.119 µM	0.105 µM	0.319 µM	0.296 µM
CS(=O)(=O)C1(c2ncc(OCCN3CCC4(CC3)C(=O)Nc3ccc(Cl)cc34)cn2)CC1 [Compound 4, 5-chloro-1′-(2-{[2-(1-methanesulfonylcyclopropyl)pyrimidin-5-yl]oxy}ethyl)-1,2-dihydrospiro[indole-3,4′-piperidin]-2-one]	0.0519 µM	0.0719 µM	0.171 µM	0.116 µM
CN1C(=O)CCc2cc(OCCN3CCC4(CC3)C(=O)Nc3ccc(Cl)cc34)cnc21 [Compound 78, 5-chloro-1′-{2-[(8-methyl-7-oxo-5,6,7,8-tetrahydro-1,8-naphthyridin-3-yl)oxy]ethyl}-1,2-dihydrospiro[indole-3,4′-piperidin]-2-one]	0.0326 µM	0.041 µM	0.0976 µM	0.0952 µM
C[C@]1(O)C[C@@H](n2cnc3cc(OCCN4CCC5(CC4)C(=O)Nc4c(I)cc(Cl)cc45)cc(C(F)(F)F)c32)C1 [Compound 453, 5-chloro-7-iodo-1′-[2-({1-[(cis)-3-hydroxy-3-methylcyclobutyl]-7-(trifluoromethyl)-1H-1,3-benzodiazol-5-yl}oxy)ethyl]-1,2-dihydrospiro[indole-3,4′-piperidin]-2-one]		0.0191 µM		
O=C1Nc2ccc(Cl)cc2C12CCN(CCOc1cnc(N3CC4(CC(O)C4)C3)nc1)CC2 [Compound 396, 5-chloro-1′-{2-[(2-{6-hydroxy-2-azaspiro[3.3]heptan-2-yl}pyrimidin-5-yl)oxy]ethyl}-1,2-dihydrospiro[indole-3,4′-piperidin]-2-one]		0.0405 µM		
CCC1(O)CN(c2ncc(OCCN3CCC4(CC3)C(=O)Nc3ccc(Cl)cc34)cn2)C1 [Compound 397, 5-chloro-1′-(2-{[2-(3-ethyl-3-hydroxyazetidin-1-yl)pyrinlidin-5-yl]oxy}ethyl)-1,2-dihydrospiro[indole-3,4′-piperidin]-2-one]	0.0852 µM	0.0459 µM	0.269 µM	0.226 µM
C[C@]1(O)C[C@@H](n2cnc3cc(OCCN4CCC5(CC4)C(=O)Nc4ccc(C#N)cc45)cc(C(F)(F)F)c32)C1 [Compound 433, 1′-(2-((1-((cis)-3-hydroxy-3-methylcyclobutyl)-7-(trifluoromethyl)-1H-benzo[d]imidazol-5-yl)oxy)ethyl)-2-oxospiro[indoline-3,4′-piperidine]-5-carbonitrile]		0.0148 µM		
CC(C)(O)c1ncc(OCCN2CCC3(CC2)C(=O)Nc2ccc(Cl)cc23)cc1C(F)(F)F [Compound 371, 5-chloro-1′-(2-{[6-(2-hydroxypropan-2-yl)-5-(trifluoromethyl)pyridin-3-yl]oxy}ethyl)-1,2-dihydrospiro[indole-3,4′-piperidin]-2-one]	0.00916 µM	0.0172 µM	0.0219 µM	0.0188 µM
Cc1nc(-c2ccc(OCCN3CCC4(CC3)C(=O)N(C)c3ccccc34)cc2)no1 [Compound 35, 1-methyl-1′-{2-[4-(5-methyl-1,2,4-oxadiazol-3-yl)phenoxy]ethyl}-1,2-dihydrospiro[indole-3,4′-piperidin]-2-one]	> 4 µM	0.574 µM	> 4 µM	> 4 µM
Cc1nc2cc(OCCN3CCC4(CC3)C(=O)Nc3ccc(Cl)cc34)cc(C(F)(F)F)c2n1[C@H]1C[C@@](C)(O)C1 [Compound 442, 5-chloro-1′-[2-({2-methyl-1-[(cis)-3-hydroxy-3-methylcyclobutyl]-7-(trifluoromethyl)-1H-1,3-benzodiazol-5-yl}oxy)ethyl]-1,2-dihydrospiro[indole-3,4′-piperidin]-2-one]		< 0.00308 µM		
CC(C)(O)c1ncc(OCCN2CCC3(CC2)C(=O)Nc2ccc(C#N)cc23)cc1C(F)(F)F [Compound 411, 1′-(2-{[6-(2-hydroxypropan-2-yl)-5-(trifluoromethyl)pyridin-3-yl]oxy}ethyl)-2-oxo-1,2-dihydrospiro[indole-3,4′-piperidine]-5-carbonitrile]		0.0226 µM		
CC(C)(CO)c1ncc(OCCN2CCC3(CC2)C(=O)Nc2ccc(Cl)cc23)cn1 [Compound 334, 5-chloro-1′-(2-{[2-(1-hydroxy-2-methylpropan-2-yl)pyrimidin-5-yl]oxy}ethyl)-1,2-dihydrospiro[indole-3,4′-piperidin]-2-one]		0.11 µM		
CC(CO)(c1ncc(OCCN2CCC3(CC2)C(=O)Nc2ccc(Cl)cc23)cc1C(F)(F)F)S(C)(=O)=O (centres unmarked) [Compound 401, 5-chloro-1′-(2-{[6-(1-hydroxy-2-methanesulfonylpropan-2-yl)-5-(trifluoromethyl)pyridin-3-yl]oxy}ethyl)-1,2-dihydrospiro[indole-3,4′-piperidin]-2-one]		0.0367 µM		
C[C@]1(O)C[C@@H](n2cnc3cc(OCCN4CCC5(CC4)C(=O)Nc4ccc(C(F)F)cc45)cc(C(F)(F)F)c32)C1 [Compound 450, 5-(difluoromethyl)-1′-[2-({1-[(cis)-3-hydroxy-3-methylcyclobutyl]-7-(trifluoromethyl)-1H-1,3-benzodiazol-5-yl}oxy)ethyl]-1,2-dihydrospiro[indole-3,4′-piperidin]-2-one]		0.0055 µM		
C[C@]1(O)C[C@@H](n2ncc3cc(OCCN4CCC5(CC4)C(=O)Nc4ccc(C#N)cc45)cc(C(F)(F)F)c32)C1 [Compound 465, 2-oxo-1′-[2-({1-[(cis)-3-hydroxy-3-methylcyclobutyl]-7-(trifluoromethyl)-1H-indazol-5-yl}oxy)ethyl]-1,2-dihydrospiro[indole-3,4′-piperidine]-5-carbonitrile]		0.00886 µM		
Cc1nc2cc(OCCN3CCC4(CC3)C(=O)Nc3ccc(C#N)cc34)cc(C(F)(F)F)c2n1[C@H]1C[C@@](C)(O)C1 [Compound 443, 1′-[2-({2-methyl-1-[(cis)-3-hydroxy-3-methylcyclobutyl]-7-(trifluoromethyl)-1H-1,3-benzodiazol-5-yl}oxy)ethyl]-2-oxo-1,2-dihydrospiro[indole-3,4′-piperidine]-5-carbonitrile]		0.0102 µM		
C[C@]1(O)C[C@@H](n2nnc3cc(OCCN4CCC5(CC4)C(=O)Nc4ccc(Cl)cc45)cc(C(F)(F)F)c32)C1 [Compound 434, 5-chloro-1′-[2-({1-[(cis)-3-hydroxy-3-methylcyclobutyl]-7-(trifluoromethyl)-1H-1,2,3-benzotriazol-5-yl}oxy)ethyl]-1,2-dihydrospiro[indole-3,4′-piperidin]-2-one]		0.0112 µM		
C[C@]1(O)C[C@@H](n2cnc3cc(OCCN4CCC5(CC4)C(=O)Nc4ccc(Cl)cc45)cc(F)c32)C1 [Compound 454, 5-chloro-1′-(2-((7-fluoro-1-((cis)-3-hydroxy-3-methylcyclobutyl)-1H-benzo[d]imidazol-5-yl)oxy)ethyl)spiro[indoline-3,4′-piperidin]-2-one]		0.0241 µM		
C[C@]1(O)C[C@@H](n2c(=O)oc3cc(OCCN4CCC5(CC4)C(=O)Nc4ccc(Cl)cc45)cnc32)C1 [Compound 394, 5-chloro-1′-[2-({2-oxo-3-[(cis)-3-hydroxy-3-methylcyclobutyl]-2H,3H-[1,3]oxazolo[4,5-b]pyridin-6-yl}oxy)ethyl]-1,2-dihydrospiro[indole-3,4′-piperidin]-2-one]		0.024 µM		
C[C@]1(O)C[C@@H](n2ccc3cc(OCCN4CCC5(CC4)C(=O)Nc4ccc(C(F)F)cc45)cnc32)C1 [Compound 350, 5-(difluoromethyl)-1′-[2-({1-[(cis)-3-hydroxy-3-methylcyclobutyl]-1H-pyrrolo[2,3-b]pyridin-5-yl}oxy)ethyl]-1,2-dihydrospiro[indole-3,4′-piperidin]-2-one]		0.0188 µM		
C[C@]1(O)C[C@@H](n2ncc3cc(OCCN4CCC5(CC4)C(=O)Nc4ccc(Cl)cc45)cc(C(F)(F)F)c32)C1 [Compound 464, 5-chloro-1′-[2-({1-[(cis)-3-hydroxy-3-methylcyclobutyl]-7-(trifluoromethyl)-1H-indazol-5-yl}oxy)ethyl]-1,2-dihydrospiro[indole-3,4′-piperidin]-2-one]		0.00502 µM		
